# Laboratory results from US20050036993A1, “Immune activation by double-stranded polynucleotides” (priority 1998, published 2005).
# Legend:
# [1] = system: MHC Class I, TAP-1, LMP2, MHC Class II, invariant chain, HLA-DM, 90K tumor-associated immunostimulator; test: Drug suppression of ds polynucleotide-induced MHC and antigen-presenting gene expression in FRTL-5 cells (Northern); assay type: cell-based, rat; settings: for ability of dsDNA to increase MHC Class I, TAP-1, LMP2, MHC Class II, invariant chain, HLA-DM, and 90K gene expression / ability of dsRNA to increase MHC Class I, TAP-1, LMP2, MHC Class II, invariant chain, HLA-DM, and 90K gene expression: FRTL-5 cells with TSH (6H5) or without TSH (5H5), 48 hours pretreatment, compound 10 0.5 mM, MMI 5 mM; for ability of dsDNA to increase MHC Class I, TAP-1, LMP2, MHC Class II, invariant chain, HLA-DM, and 90K gene expression: 2-mercaptoimidazole 5 mM, 5 ug dsDNA; for dsDNA or dsRNA transfection efficiency: FRTL-5 cells, drug-treated; for ability of dsRNA to increase MHC Class I, TAP-1, LMP2, MHC Class II, invariant chain, HLA-DM, and 90K gene expression: 5 ug dsRNA
# [2] = system: MHC Class I and Class II gene expression; settings: cited from earlier work
# vaccinia viruses = settings: cited from earlier work
# herpes simplex = settings: cited from earlier work
# FRTL-5 rat thyroid cells = test: DNA staining and cell cycle analysis (FACS) of FRTL-5 cells; assay type: cell-based; settings: for cell cycle arrest: 5H medium 6 days then 6H medium (TSH 1×10^−10M), 5 mM methimazole or 0.5 mM compound 10; for percentage of cells in S + G2/M phase: Methimazole 5 mM, Compound 10 0.5 mM; for action of the ds nucleic acids on cell cycle progression: Table 2 experiment, 4H medium; for effect of ds nucleic acids on growth: summary statement
# Description: Cells were diploid and between their 5th and 25th passage. Fresh medium was added every 2 or 3 days and cells were passaged every 7-10 days. In some experiments, as noted, cells were grown to near confluency in 6H medium then maintained in 5H medium (which contains no TSH) or 4H medium (with no TSH and no insulin) for 6-8 days before experiments were initiated. Treatment with 5H or 4H medium synchronizes the cells by piling them up in G0/G1 (A. Hirai, et al., J. Biol. Chem. 272: 13-16 (1997); Y. Noguchi, et al., J. Biol. Chem. 273: 3649-3653 (1998)).
# DNA Staining and Cell Cycle Analysis—The procedure used was a modification of that described (P. Smerdely, et al., Endocrinology 133: 2403-2406 (1993)). It used the Cycle TEST PLUS DNA Reagent Kit (Becton Dickinson, San Jose, Calif.); and FACS analysis was performed according to the manufacturer's instructions. Briefly, 5×10^5 cells were incubated with 250 T1 of Solution A (trypsin buffer) for 10 min at room temperature, then 200 T1 of Solution B (trypsin inhibitor and ribonuclease A buffer) was added and further incubated for 10 min. Cold Solution C (propidium iodide stain solution) was added and incubated for 10 min at 4° C. in the dark. FACS analysis was performed using FACScan (Becton Dickinson, San Jose, Calif.). Each analysis was performed in triplicate on cells from 3 different plates; the histogram had at least 10,000 events and a coefficient of variation less than 5%.
# In the experiment above, there was a minimal direct methimazole effect on the cell cycle because the cells were maintained in 4H medium without insulin; methimazole action requires insulin (O. Isozaki, et al., Mol. Endocrinol, 3: 1681-1692 (1989); O. Isozaki, et al., Endocrinology 128: 3113-3121 (1991)). […] In this experiment, FRTL-5 cells were grown to near confluency in 6H medium, then shifted to 5H medium without TSH for 6 days. The experiments were initiated by returning the cells to 6H medium to reinitiate the cell cycle. Cells were treated with 5 mM methimazole and transfected or not with dsDNA or dsRNA. After 36 hours they were subjected to cell cycle analysis. […] In this experiment, FRTL-5 cells were grown to near confluency in 6H medium, then shifted to 5H medium without TSH for 6 days. The experiments were initiated by returning the cells to 6H medium to reinitiate the cell cycle. Cells were treated with 0.5 mM 5-phenylmethimazole (compound 10) and transfected or not with dsDNA or dsRNA. After 36 hours they were subjected to cell cycle analysis.
# female NOD mice = settings: cited from earlier work
# HUVEC cells = test: Drug suppression of ds DNA or RNA effect in endothelia (HUVEC) cells; assay type: cell-based, human
# Source text: (§1) In this experiment (FIG. 6), cells were pretreated with MMI and compound 10 for 2 days before tranfection. […] The effect was therefore not thyroid cell restricted.
# mouse dendritic cells = test: Drug suppression of ds DNA or RNA effect in mouse dendritic cells; assay type: cell-based
# Source text: as §1
# human fibroblasts = test: Drug suppression of ds DNA or RNA effect in human fibroblasts; assay type: cell-based
# Source text: as §1
# female (NZBxNZW)F1 mice = settings: cited from earlier work
# [3] = Control (no ds nucleic acid), FRTL-5 cells 6 days in 4 H medium without insulin or TSH
# [4] = transfected with dsDNA, FRTL-5 cells 6 days in 4 H medium
# [5] = transfected with dsRNA, FRTL-5 cells 6 days in 4 H medium
Compound,"ability of dsDNA to increase MHC Class I, TAP-1, LMP2, MHC Class II, invariant chain, HLA-DM, and 90K gene expression [1]",activity as antimmune drug [2],dsDNA or dsRNA transfection efficiency [1],cell cycle arrest (FRTL-5 rat thyroid cells; 36 hours),percentage of cells in S + G2/M phase (FRTL-5 rat thyroid cells; [3]),action of the ds nucleic acids on cell cycle progression (FRTL-5 rat thyroid cells),effect of ds nucleic acids on growth (FRTL-5 rat thyroid cells),percentage of cells in S + G2/M phase (FRTL-5 rat thyroid cells; [4]),percentage of cells in S + G2/M phase (FRTL-5 rat thyroid cells; [5]),other results
"Sc1ncc[nH]1 [2-mercaptoimidazole, reference compound]",no effect,inactive,–,–,–,–,–,–,–,–
"1,3-dimethyl-4-phenylimidazoline-2-thione",–,–,–,–,–,–,–,–,–,antiviral properties (vaccinia viruses): antiviral properties; antiviral properties (herpes simplex): antiviral properties
"Cn1cc[nH]c1=S [Methimazole, methimazole, reference compound]",INHIBIT,–,does not affect,arrest in the G2/M1 phase,6.3%,inhibit,counteracts,11.4%,7.4%,–
"Cn1c(-c2ccccc2)c[nH]c1=S [Compound 10, 5-phenylmethimazole]",significantly decreases,most active,does not affect,no such effect,10.5%,inhibit,does not,11.0%,4.5%,"ability of dsDNA to increase MHC Class I, TAP-1, LMP2, MHC Class II, invariant chain, HLA-DM, and 90K gene expression ([1]; listed as compound 10): better than 5 mM MMI; ability of dsRNA to increase MHC Class I, TAP-1, LMP2, MHC Class II, invariant chain, HLA-DM, and 90K gene expression [1]: decreases; ability of dsRNA to increase MHC Class I, TAP-1, LMP2, MHC Class II, invariant chain, HLA-DM, and 90K gene expression ([1]; listed as compound 10): better than MMI; expression of MHC and antigen-presenting genes, coincident transfection and treatment ([1]; no pretreatment): resulted in suppression; development of Diabetes (female NOD mice): suppress the development; effect on cells transfected with double strand DNA or RNA (HUVEC cells): similarly effective; effect on cells transfected with double strand DNA or RNA (mouse dendritic cells): similarly effective; potency relative to MMI [2]: 10- to 100 fold; effect on ds nucleic acid effects on cell cycle (FRTL-5 rat thyroid cells; 5H then 6H medium, 0.5 mM compound 10, 36 hours): no effect; effect on cells transfected with double strand DNA or RNA (human fibroblasts): similarly effective; development of systemic lupus erythematosus (SLE) (female (NZBxNZW)F1 mice): suppress the development"
